Measurements published in the kinase profiling compilation of Christmann-Franck et al. (2016).
Values joined by “and” are separate entries in the source; they are usually repeats but may differ in a detail not shown here. Identical values can stand only once.

Tests used:
Experiment in all cases: radiometric filter-binding kinase assay, Kinase HotSpot
Details in all cases: compound 0.5 µM; ATP 10 µM
[1] = target: CSNK2A2 (human) (UniProt P19784)
[2] = target: EPHA7 (human) (UniProt Q15375)
[3] = target: MKNK2 (human) (UniProt Q9HBH9)
[4] = target: SRPK2 (human) (UniProt P78362)
[5] = target: CAMK4 (human) (UniProt Q16566)
[6] = target: RIPK2 (human) (UniProt O43353)
[7] = target: PRKACA (human) (UniProt P17612)
[8] = target: DAPK1 (human) (UniProt P53355)
[9] = target: YES1 (human) (UniProt P07947)
Sequence of YES1 (human) (P07947 whole entry, looked up): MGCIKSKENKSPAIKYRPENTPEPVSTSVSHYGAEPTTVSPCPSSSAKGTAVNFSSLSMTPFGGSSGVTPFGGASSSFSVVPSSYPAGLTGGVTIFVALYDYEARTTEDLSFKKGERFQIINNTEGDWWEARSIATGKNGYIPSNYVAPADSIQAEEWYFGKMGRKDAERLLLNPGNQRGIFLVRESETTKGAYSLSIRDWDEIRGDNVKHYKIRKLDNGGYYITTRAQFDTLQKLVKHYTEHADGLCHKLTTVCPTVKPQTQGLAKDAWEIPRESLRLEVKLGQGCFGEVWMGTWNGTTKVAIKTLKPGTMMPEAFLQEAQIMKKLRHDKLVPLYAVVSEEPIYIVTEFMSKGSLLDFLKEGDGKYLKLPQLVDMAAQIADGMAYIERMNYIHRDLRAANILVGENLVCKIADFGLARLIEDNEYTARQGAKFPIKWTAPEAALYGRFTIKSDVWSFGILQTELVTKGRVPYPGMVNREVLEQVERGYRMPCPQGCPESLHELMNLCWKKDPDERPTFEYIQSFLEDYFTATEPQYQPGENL

[10] = target: PAK1 (human) (UniProt Q13153)
[11] = target: HIPK2 (human) (UniProt Q9H2X6)
[12] = target: CDK9 CCNT1 (human) (UniProt P50750+O60563)
Sequence of CDK9 CCNT1 (human) (O60563 whole entry, looked up): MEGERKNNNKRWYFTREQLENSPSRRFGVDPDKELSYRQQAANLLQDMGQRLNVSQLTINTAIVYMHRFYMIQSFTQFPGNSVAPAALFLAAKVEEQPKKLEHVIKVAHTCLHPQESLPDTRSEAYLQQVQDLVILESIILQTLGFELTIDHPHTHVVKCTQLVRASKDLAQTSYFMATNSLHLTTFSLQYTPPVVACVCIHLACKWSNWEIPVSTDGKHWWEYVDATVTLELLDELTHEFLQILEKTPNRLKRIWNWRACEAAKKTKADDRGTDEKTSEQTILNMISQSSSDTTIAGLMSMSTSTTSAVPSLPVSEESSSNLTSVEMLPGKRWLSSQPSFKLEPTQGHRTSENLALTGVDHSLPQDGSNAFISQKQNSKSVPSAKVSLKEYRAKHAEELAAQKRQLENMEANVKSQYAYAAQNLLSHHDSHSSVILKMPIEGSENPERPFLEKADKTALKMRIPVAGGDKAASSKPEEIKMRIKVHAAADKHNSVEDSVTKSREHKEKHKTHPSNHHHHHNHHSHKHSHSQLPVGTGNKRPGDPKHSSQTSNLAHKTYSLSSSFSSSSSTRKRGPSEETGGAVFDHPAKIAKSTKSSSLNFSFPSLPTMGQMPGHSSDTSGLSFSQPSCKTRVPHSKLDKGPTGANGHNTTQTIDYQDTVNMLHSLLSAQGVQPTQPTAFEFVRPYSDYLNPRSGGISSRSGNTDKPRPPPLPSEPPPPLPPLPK
Sequence of CDK9 CCNT1 (human) (P50750 whole entry, looked up): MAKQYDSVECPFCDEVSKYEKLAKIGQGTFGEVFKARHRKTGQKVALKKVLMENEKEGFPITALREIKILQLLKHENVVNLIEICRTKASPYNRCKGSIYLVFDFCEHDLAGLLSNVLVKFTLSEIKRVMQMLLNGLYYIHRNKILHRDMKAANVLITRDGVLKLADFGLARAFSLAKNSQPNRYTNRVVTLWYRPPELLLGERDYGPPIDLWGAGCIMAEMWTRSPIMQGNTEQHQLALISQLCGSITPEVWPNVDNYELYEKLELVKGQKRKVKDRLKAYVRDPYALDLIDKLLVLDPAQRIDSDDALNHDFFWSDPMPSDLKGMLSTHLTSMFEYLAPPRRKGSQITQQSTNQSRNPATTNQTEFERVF

[13] = target: LYN (human) (UniProt P07948)
[14] = target: DDR2 (human) (UniProt Q16832)
[15] = target: PRKG1 (human) (UniProt Q13976)
[16] = target: SRMS (human) (UniProt Q9H3Y6)
[17] = target: PRKCB2 (human) (UniProt P05771)
[18] = target: CDK2 CCNA2 (human) (UniProt P24941+P20248)
[19] = target: AURKC (human) (UniProt Q9UQB9)
[20] = target: CSF1R (human) (UniProt P07333)
[21] = target: PHKG2 (human) (UniProt P15735)
[22] = target: PBK (human) (UniProt Q96KB5)
[23] = target: NEK11 (human) (UniProt Q8NG66)
[24] = target: PRKD2 (human) (UniProt Q9BZL6)
[25] = target: CAMK2B (human) (UniProt Q13554)
[26] = target: MAP4K2 (human) (UniProt Q12851)
[27] = target: PASK (human) (UniProt Q96RG2)
[28] = target: FGFR2 (human) (UniProt P21802)
[29] = target: NTRK2 (human) (UniProt Q16620)
[30] = target: INSRR (human) (UniProt P14616)
[31] = target: SGK3 (human) (UniProt Q96BR1)
[32] = target: BMX (human) (UniProt P51813)
[33] = target: ABL2 (human) (UniProt P42684)
Sequence of ABL2 (human) (P42684 whole entry, looked up): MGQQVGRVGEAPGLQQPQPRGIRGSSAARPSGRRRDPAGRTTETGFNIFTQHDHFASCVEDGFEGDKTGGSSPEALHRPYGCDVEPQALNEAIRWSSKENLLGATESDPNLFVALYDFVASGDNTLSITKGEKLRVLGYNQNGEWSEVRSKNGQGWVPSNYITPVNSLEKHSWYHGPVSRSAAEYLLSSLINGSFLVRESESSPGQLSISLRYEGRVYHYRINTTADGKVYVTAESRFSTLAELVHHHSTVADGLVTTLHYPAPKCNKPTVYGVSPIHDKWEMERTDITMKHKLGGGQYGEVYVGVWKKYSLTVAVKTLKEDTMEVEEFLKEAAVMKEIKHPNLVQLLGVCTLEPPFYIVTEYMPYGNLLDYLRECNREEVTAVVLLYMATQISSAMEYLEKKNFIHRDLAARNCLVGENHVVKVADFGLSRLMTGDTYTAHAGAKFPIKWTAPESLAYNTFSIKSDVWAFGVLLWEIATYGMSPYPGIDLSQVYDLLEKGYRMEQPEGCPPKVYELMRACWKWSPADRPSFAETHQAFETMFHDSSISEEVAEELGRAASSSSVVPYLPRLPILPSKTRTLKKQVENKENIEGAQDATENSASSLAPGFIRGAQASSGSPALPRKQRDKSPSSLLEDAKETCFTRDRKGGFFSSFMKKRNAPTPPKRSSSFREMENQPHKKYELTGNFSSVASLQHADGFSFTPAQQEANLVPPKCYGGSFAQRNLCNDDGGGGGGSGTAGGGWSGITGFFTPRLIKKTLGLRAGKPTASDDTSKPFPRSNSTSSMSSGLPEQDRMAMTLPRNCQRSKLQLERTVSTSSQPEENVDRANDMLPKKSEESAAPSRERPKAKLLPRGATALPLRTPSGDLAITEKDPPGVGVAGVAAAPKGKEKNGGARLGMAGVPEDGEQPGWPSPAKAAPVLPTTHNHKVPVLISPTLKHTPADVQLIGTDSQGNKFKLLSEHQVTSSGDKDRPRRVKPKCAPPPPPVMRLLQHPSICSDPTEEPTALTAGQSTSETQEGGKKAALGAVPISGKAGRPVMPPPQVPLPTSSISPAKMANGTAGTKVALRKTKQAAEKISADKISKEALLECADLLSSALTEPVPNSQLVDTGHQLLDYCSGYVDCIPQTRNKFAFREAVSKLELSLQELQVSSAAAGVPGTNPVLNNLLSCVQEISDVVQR

[34] = system: MKNK1 (human), Q9BUB5 [T385D; 165-205 del]
[35] = target: FRK (human) (UniProt P42685)
[36] = target: PRKCA (human) (UniProt P17252)
[37] = target: EPHB3 (human) (UniProt P54753)
[38] = target: PLK1 (human) (UniProt P53350)
Sequence of PLK1 (human) (P53350 whole entry, looked up): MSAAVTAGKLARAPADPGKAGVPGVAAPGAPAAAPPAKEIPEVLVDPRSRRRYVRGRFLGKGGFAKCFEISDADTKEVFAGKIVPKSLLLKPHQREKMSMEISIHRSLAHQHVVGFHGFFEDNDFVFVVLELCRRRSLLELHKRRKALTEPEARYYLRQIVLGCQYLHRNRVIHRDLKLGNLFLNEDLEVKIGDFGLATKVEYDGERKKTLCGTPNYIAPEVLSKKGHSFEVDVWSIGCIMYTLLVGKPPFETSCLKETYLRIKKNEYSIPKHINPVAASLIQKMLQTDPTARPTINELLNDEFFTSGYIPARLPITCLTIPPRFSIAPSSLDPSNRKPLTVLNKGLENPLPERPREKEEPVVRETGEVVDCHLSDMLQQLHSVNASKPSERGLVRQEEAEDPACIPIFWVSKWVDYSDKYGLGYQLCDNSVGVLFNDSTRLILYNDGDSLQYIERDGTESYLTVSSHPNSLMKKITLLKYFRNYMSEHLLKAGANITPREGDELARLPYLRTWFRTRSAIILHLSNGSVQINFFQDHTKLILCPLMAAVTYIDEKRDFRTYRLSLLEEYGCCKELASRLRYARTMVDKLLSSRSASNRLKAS

[39] = target: RPS6KA1 KD1 KD2 (human) (UniProt Q15418)
[40] = target: MST4 (human) (UniProt Q9P289)
[41] = target: MATK (human) (UniProt P42679)
[42] = target: ITK (human) (UniProt Q08881)
Sequence of ITK (human) (Q08881 whole entry, looked up): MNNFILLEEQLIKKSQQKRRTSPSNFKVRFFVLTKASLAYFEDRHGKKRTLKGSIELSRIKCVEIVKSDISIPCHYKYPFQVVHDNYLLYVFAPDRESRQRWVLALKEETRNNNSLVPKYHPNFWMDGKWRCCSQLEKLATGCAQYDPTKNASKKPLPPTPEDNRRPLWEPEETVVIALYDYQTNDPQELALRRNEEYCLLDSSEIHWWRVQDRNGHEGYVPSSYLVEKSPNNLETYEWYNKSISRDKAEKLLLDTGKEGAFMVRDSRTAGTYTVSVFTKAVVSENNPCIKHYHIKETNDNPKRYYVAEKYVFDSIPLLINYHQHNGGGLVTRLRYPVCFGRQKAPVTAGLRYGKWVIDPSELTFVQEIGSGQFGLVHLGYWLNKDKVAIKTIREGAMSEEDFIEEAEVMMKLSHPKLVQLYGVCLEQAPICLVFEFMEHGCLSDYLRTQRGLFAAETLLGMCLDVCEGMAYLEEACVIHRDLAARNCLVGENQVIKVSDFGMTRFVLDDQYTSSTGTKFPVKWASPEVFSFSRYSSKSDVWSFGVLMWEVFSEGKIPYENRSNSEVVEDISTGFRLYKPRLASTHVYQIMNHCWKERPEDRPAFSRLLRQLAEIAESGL

Sequence of EPHA7 (human) (Q15375 whole entry, looked up): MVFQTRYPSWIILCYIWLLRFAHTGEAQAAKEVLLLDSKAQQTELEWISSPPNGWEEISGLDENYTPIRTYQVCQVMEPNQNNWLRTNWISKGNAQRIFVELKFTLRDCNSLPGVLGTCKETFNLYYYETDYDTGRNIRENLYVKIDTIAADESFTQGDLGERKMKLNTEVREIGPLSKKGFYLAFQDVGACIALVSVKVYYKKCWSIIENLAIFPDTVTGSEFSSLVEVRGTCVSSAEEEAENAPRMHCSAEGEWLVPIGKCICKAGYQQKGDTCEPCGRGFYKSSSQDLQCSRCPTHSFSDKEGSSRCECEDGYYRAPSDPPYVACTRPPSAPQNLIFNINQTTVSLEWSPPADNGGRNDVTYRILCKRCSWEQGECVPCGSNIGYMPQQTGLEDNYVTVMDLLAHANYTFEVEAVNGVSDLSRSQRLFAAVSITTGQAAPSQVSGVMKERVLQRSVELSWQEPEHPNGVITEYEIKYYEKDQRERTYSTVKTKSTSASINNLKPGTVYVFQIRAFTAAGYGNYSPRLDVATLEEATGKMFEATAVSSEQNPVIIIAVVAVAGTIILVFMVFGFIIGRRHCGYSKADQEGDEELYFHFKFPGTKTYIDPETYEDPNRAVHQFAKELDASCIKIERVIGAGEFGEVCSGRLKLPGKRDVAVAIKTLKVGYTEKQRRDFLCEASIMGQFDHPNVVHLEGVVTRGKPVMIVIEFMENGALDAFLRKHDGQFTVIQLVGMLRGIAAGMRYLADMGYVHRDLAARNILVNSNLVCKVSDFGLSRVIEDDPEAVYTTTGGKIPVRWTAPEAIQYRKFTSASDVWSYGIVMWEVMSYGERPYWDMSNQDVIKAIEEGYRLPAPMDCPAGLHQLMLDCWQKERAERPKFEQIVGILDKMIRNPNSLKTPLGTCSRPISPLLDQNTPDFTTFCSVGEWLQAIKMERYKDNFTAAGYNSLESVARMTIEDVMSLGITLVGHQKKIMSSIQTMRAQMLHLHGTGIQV

Structure (SMILES): NC(=O)c1cccc(-c2cc(Nc3ccc(OC(F)(F)F)cc3)ncn2)c1
- residual activity [1]: 92.7%
- residual activity [2]: 99.1%
- residual activity [3]: 95.4%
- residual activity [4]: 105%
- residual activity [5]: 90.5%
- residual activity [6]: 89.3%
- residual activity [7]: 94.2%
- residual activity [8]: 81.1%
- residual activity [9]: 87.4%
- residual activity [10]: 93.3%
- residual activity [11]: 102%
- residual activity [12]: 82.2%
- residual activity [13]: 101% and 99.8%
- residual activity [14]: 108%
- residual activity [15]: 92.9% and 98.4%
- residual activity [16]: 93.4%
- residual activity [17]: 122%
- residual activity [18]: 96.5%
- residual activity [19]: 101%
- residual activity [20]: 94.1%
- residual activity [21]: 103%
- residual activity [22]: 72.2%
- residual activity [23]: 98.3%
- residual activity [24]: 102%
- residual activity [25]: 100%
- residual activity [26]: 132%
- residual activity [27]: 100%
- residual activity [28]: 95.9%
- residual activity [29]: 96%
- residual activity [30]: 90.7%
- residual activity [31]: 104%
- residual activity [32]: 107%
- residual activity [33]: 106%
- residual activity [34]: 95.9%
- residual activity [35]: 95.5%
- residual activity [36]: 77.4%
- residual activity [37]: 98%
- residual activity [38]: 97.7%
- residual activity [39]: 92.7%
- residual activity [40]: 94.7%
- residual activity [41]: 100%
- residual activity [42]: 95.3%

Structure (SMILES): O=C1Nc2ccc(Br)cc2/C1=C\c1cc2c([nH]1)CCCC2
- residual activity [2]: 85.3%
- residual activity [3]: 87.1%
- residual activity [4]: 90.6%
- residual activity [5]: 97.5%
- residual activity [6]: 87.2%
- residual activity [7]: 96.5%
- residual activity [8]: 111%
- residual activity [9]: 67.2%
- residual activity [10]: 95.7%
- residual activity [11]: 91%
- residual activity [12]: 90%
- residual activity [13]: 70.8% and 86.8%
- residual activity [14]: 101%
- residual activity [15]: 77% and 87.9%
- residual activity [16]: 104%
- residual activity [17]: 85.5%
- residual activity [18]: 90.8%
- residual activity [19]: 86.3%
- residual activity [20]: 49.7%
- residual activity [21]: 90.5%
- residual activity [22]: 87.8%
- residual activity [23]: 111%
- residual activity [24]: 95.8%
- residual activity [25]: 85.8%
- residual activity [26]: 58.1%
- residual activity [27]: 98.9%
- residual activity [28]: 87.4%
- residual activity [29]: 43.6%
- residual activity [30]: 94.8%
- residual activity [31]: 97.6%
- residual activity [32]: 89.9%
- residual activity [33]: 82.6%
- residual activity [34]: 106%
- residual activity [35]: 91%
- residual activity [36]: 102%
- residual activity [37]: 99.7%
- residual activity [38]: 102%
- residual activity [39]: 70.4%
- residual activity [40]: 87.9%
- residual activity [41]: 94.2%
- residual activity [42]: 87.5%

Structure (SMILES): COc1ccc2c(c1)/C(=C/c1cnc[nH]1)C(O)=N2
- residual activity [1]: 77.5%
- residual activity [2]: 90.4%
- residual activity [3]: 84.9%
- residual activity [4]: 101%
- residual activity [5]: 97.4%
- residual activity [6]: 90%
- residual activity [7]: 99.9%
- residual activity [8]: 105%
- residual activity [9]: 82.1%
- residual activity [10]: 97.8%
- residual activity [11]: 100%
- residual activity [12]: 67.4%
- residual activity [13]: 88.3% and 98.3%
- residual activity [14]: 95.5%
- residual activity [15]: 91.7% and 99%
- residual activity [16]: 103%
- residual activity [17]: 110%
- residual activity [19]: 67.8%
- residual activity [20]: 88.7%
- residual activity [21]: 88.3%
- residual activity [22]: 124%
- residual activity [23]: 84.8%
- residual activity [24]: 60.2%
- residual activity [26]: 42.6%
- residual activity [27]: 93.4%
- residual activity [28]: 84%
- residual activity [29]: 30.1%
- residual activity [30]: 97.8%
- residual activity [31]: 101%
- residual activity [32]: 100%
- residual activity [33]: 90.6%
- residual activity [34]: 88.4%
- residual activity [35]: 96.4%
- residual activity [36]: 91.3%
- residual activity [37]: 98.8%
- residual activity [38]: 103%
- residual activity [39]: 69.6%
- residual activity [40]: 88.5%
- residual activity [41]: 92.3%
- residual activity [42]: 94%

Structure (SMILES): O=C1C(Cl)=C(N2C(=O)CCC2=O)C(=O)c2ccccc21
- residual activity [1]: 100%
- residual activity [2]: 106%
- residual activity [3]: 84.5%
- residual activity [4]: 100%
- residual activity [6]: 84.8%
- residual activity [7]: 88.8%
- residual activity [8]: 101%
- residual activity [9]: 103%
- residual activity [10]: 96.3%
- residual activity [11]: 104%
- residual activity [12]: 101%
- residual activity [13]: 93.5% and 97%
- residual activity [14]: 95.8%
- residual activity [15]: 104% and 97.8%
- residual activity [16]: 108%
- residual activity [17]: 108%
- residual activity [18]: 109%
- residual activity [19]: 97.9%
- residual activity [20]: 102%
- residual activity [21]: 100%
- residual activity [22]: 106%
- residual activity [23]: 101%
- residual activity [24]: 95.7%
- residual activity [25]: 106%
- residual activity [26]: 89.6%
- residual activity [27]: 103%
- residual activity [28]: 102%
- residual activity [29]: 104%
- residual activity [30]: 96.9%
- residual activity [31]: 103%
- residual activity [32]: 103%
- residual activity [33]: 106%
- residual activity [34]: 135%
- residual activity [35]: 103%
- residual activity [36]: 99.1%
- residual activity [37]: 97%
- residual activity [38]: 97.6%
- residual activity [39]: 96.6%
- residual activity [40]: 98.3%
- residual activity [41]: 88%
- residual activity [42]: 87.5%
